Results on 39 compounds are retold here after ChEMBL document CHEMBL1140149, “Discovery of bioavailable 4,4-disubstituted piperidines as potent ligands of the chemokine receptor 5 and inhibitors of the human immunodeficiency virus-1” (J Med Chem, 2008).

One data set is filed under the species Rattus norvegicus.
Test: not given
Conditions: not given
In the case of `Cc1nc2ccccc2n1[C@H]1C[C@H]2CC[C@@H](C1)N2CCC1(c2cccc(Cl)c2)CCN(C(=O)C(C)(C)C)CC1`, the LBF came out at 38%.

In another data set the test system is Human immunodeficiency virus 1. Description: Antiviral activity against HIV1 Ba-L in human PBL cells by MTS assay. Particulars: Human immunodeficiency virus 1, Ba-L. Format: functional, organism-based.
For `Cc1nc2ccccc2n1[C@H]1C[C@H]2CC[C@@H](C1)N2CCC1(c2cccc(Cl)c2)CCN(C(=O)C(C)(C)C)CC1`, the IC50 is 1.91 nM.

Another data set deals with C-C chemokine receptor type 5 (Homo sapiens, UniProt P51681). Briefly: Displacement of [125I]MIP-1beta from human CCR5 expressed in CHO cells. The format is cell-based.
C-C chemokine receptor type 5, sequence (P51681 whole entry): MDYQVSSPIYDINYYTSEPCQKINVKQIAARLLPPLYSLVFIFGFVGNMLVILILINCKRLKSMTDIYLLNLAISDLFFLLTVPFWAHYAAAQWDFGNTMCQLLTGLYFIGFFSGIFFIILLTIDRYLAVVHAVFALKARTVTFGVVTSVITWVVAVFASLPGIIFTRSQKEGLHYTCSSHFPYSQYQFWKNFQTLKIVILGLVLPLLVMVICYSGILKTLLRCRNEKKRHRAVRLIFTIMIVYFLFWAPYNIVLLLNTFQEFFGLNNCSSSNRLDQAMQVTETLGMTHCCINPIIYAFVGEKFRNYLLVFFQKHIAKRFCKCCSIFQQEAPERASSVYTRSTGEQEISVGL
Conditions: not given
Take `O=C1CCC(CCCN2CCC(n3c(=O)[nH]c4ccccc43)CC2)(c2ccc(Cl)c(Cl)c2)CN1Cc1ccccc1` (stereo not given): the IC50 was 20000 nM. The same measure, in the same setting: the result for `Cc1nc2ccccc2n1[C@H]1C[C@H]2CC[C@@H](C1)N2CCCC1(c2ccccc2)CCN(C(=O)OC(C)(C)C)CC1` reads more than 31600 nM; that for `Cc1nc2ccccc2n1[C@@H]1C[C@H]2CC[C@@H](C1)N2CCCC1(c2ccc(Cl)c(Cl)c2)CCN(C(=O)OC(C)(C)C)CC1`, 20000 nM; that for `Cc1nc2ccccc2n1[C@@H]1C[C@H]2CC[C@@H](C1)N2CCCC1(c2ccccc2)CCN(C(=O)c2ccco2)CC1`, 5010 nM.

`Cc1nc2ccccc2n1[C@@H]1C[C@H]2CC[C@@H](C1)N2CCCC1(c2ccccc2)CCN(C(=O)c2ccccc2)CC1` gave an IC50 of 1260 nM. Same read-out and setting: as for `Cc1nc2ccccc2n1[C@@H]1C[C@H]2CC[C@@H](C1)N2CCC1(c2ccccc2)CCN(C(=O)OC(C)(C)C)CC1`, the figure is 63.1 nM; as for `Cc1nc2ccccc2n1[C@@H]1C[C@H]2CC[C@@H](C1)N2CCC1(c2ccccc2)CCN(C(=O)OCc2ccccc2)CC1`, 63.1 nM.

`Cc1nc2ccccc2n1[C@H]1C[C@H]2CC[C@@H](C1)N2CCC1(c2ccc(Cl)c(Cl)c2)CCN(C(=O)c2ccccc2)CC1` had an IC50 of 15.8 nM. On the same count and under the same terms, the result for `Cc1nc2ccccc2n1[C@H]1C[C@H]2CC[C@@H](C1)N2CCC1(c2cccc(Cl)c2)CCN(C(=O)c2ccccc2)CC1` reads 5.25 nM; that for `Cc1nc2ccccc2n1[C@H]1C[C@H]2CC[C@@H](C1)N2CCC1(c2ccc(Cl)c(Cl)c2)CCN(C(=O)C(C)(C)C)CC1`, 7.24 nM.

For `Cc1nc2ccccc2n1[C@H]1C[C@H]2CC[C@@H](C1)N2CCC1(c2ccc(Cl)c(Cl)c2)CCN(C(=O)OC(C)(C)C)CC1`, the IC50 was 29.5 nM.

On to `Cc1nc2ccccc2n1[C@H]1C[C@H]2CC[C@@H](C1)N2CCC1(c2cccc(Cl)c2)CCN(C(=O)OC(C)(C)C)CC1`, for which the half-inhibitory concentration (IC50) was 5.01 nM. The same measure, in the same setting: as for `Cc1nc2ccccc2n1[C@H]1C[C@H]2CC[C@@H](C1)N2CCC1(c2ccc(Cl)c(Cl)c2)CCN(C(=O)OC(C)(C)C)C1` (stereo not given in full), the figure is 776 nM. Still for that read-out and setting: the result for `O=C(c1ccccc1)N1CCCC(CCCN2CCC(n3c(=O)[nH]c4ccccc43)CC2)(c2ccc(Cl)c(Cl)c2)C1` (stereo not given) reads 1580 nM. Regarding `CN1CN(c2ccccc2)C2(CCN(CCCC3(c4ccc(Cl)c(Cl)c4)CCN(C(=O)c4ccco4)C3)CC2)C1=O` (stereo not given), the IC50 was 7080 nM. As for `O=C1NCN(c2ccccc2)C12CCN(CCOC1(c3ccc(Cl)c(Cl)c3)CCN(S(=O)(=O)c3ccccc3)CC1)CC2`, the IC50 is 2400 nM.

`O=C1CC(CCCN2CCC3(CC2)C(=O)NCN3c2ccccc2)(c2ccc(Cl)c(Cl)c2)CN1Cc1ccccc1` (stereo not given) showed an IC50 of 1020 nM.

`NC(=O)C1(Nc2ccccc2)CCN(CCCC2(c3ccc(Cl)c(Cl)c3)CCCN(C(=O)c3ccccc3)C2)CC1` (stereo not given) gave an IC50 of more than 31600 nM. Take `CC(C)(C)OC(=O)N1CCC(CCN2CCC3(CC2)C(=O)NCN3c2ccccc2)(c2ccccc2)CC1`: the half-inhibitory concentration (IC50) is 4570 nM. In turn, `CC(C)(C)OC(=O)N1CCC(CCCN2CCC(n3c(=O)[nH]c4ccccc43)CC2)(c2ccc(Cl)c(Cl)c2)CC1` showed an IC50 of 7940 nM. Still for that read-out and setting: as for `CC(C)(C)OC(=O)N1CCC(CCCN2CCC(n3c(=O)[nH]c4ccccc43)CC2)(c2ccccc2)CC1`, the figure is 3980 nM; as for `O=C(c1ccco1)N1CCC(CCCN2CCC3(CC2)C(=O)NCN3C2CCCCC2)(c2ccc(Cl)c(Cl)c2)C1` (stereo not given), more than 31600 nM.

`O=C1CC(CCN2CCC3(CC2)C(=O)NCN3c2ccccc2)(c2ccc(Cl)c(Cl)c2)CN1Cc1ccccc1` (stereo not given) gave a 50% inhibitory concentration (IC50) of 9330 nM. Still for that read-out and setting: as for `O=C1NCN(c2ccccc2)C12CCN(CCCC1(c3ccc(Cl)c(Cl)c3)CCN(Cc3ccco3)C1)CC2` (stereo not given), the figure is 5250 nM.

With `O=C(c1ccco1)N1CCC(CCN2CCC3(CC2)C(=O)NCN3c2ccccc2)(c2ccccc2)C1` (stereo not given), the IC50 is 9330 nM. The same measure, in the same setting: the result for `O=C(c1ccco1)N1CCC(OCCN2CCC3(CC2)C(=O)NCN3c2ccccc2)(c2ccc(Cl)c(Cl)c2)CC1` reads 3470 nM; that for `O=C1NCN(c2ccccc2)C12CCN(CCCC1(c3ccc(Cl)c(Cl)c3)CN(S(=O)(=O)c3ccccc3)C1)CC2`, 9120 nM. Take `O=C1NCN(c2ccccc2)C12CCN(CCOC1(c3ccc(Cl)c(Cl)c3)CCN(S(=O)(=O)c3ccccc3)C1)CC2` (stereo not given): the IC50 is 20400 nM. For `O=C1CCC(CCCN2CCC3(CC2)C(=O)NCN3c2ccccc2)(c2ccc(Cl)c(Cl)c2)CN1Cc1ccccc1` (stereo not given), the IC50 is 1000 nM. Still for that read-out and setting: as for `Cc1nc2ccccc2n1C1CC2COCC(C1)N2CCC1(c2ccccc2)CCN(C(=O)c2ccccc2)CC1` (stereo not given), the figure is more than 3160 nM. Same read-out and setting: as for `O=C(c1ccco1)N1CCC(CCCN2CCC3(CC2)C(=O)NC(=O)N3c2ccccc2)(c2ccc(Cl)c(Cl)c2)C1` (stereo not given), the figure is more than 31600 nM. On the same count and under the same terms, as for `O=C(c1ccccc1)N1CCCC(CCCN2CCC3(CC2)C(=O)NCN3c2ccccc2)(c2ccc(Cl)c(Cl)c2)C1` (stereo not given), the figure is 447 nM; as for `O=C(C1CCCC1)N1CCC(OCCN2CCC3(CC2)C(=O)NCN3c2ccccc2)(c2ccc(Cl)c(Cl)c2)C1` (stereo not given), 4790 nM; as for `O=C(c1ccco1)N1CCC(CCN2CCC3(CC2)C(=O)NCN3c2ccccc2)(c2ccc(Cl)c(Cl)c2)C1` (stereo not given), 1480 nM. With `O=C(c1ccco1)N1CCC(OCCN2CCC3(CC2)C(=O)NCN3c2ccccc2)(c2ccc(Cl)c(Cl)c2)C1` (stereo not given), the concentration for half-maximal inhibition (IC50) was 3980 nM. Same read-out and setting: the result for `O=C(c1ccco1)N1CCC(CCCN2CCC3(CC2)C(=O)NCN3c2ccccc2)(c2ccc(Cl)c(Cl)c2)C1` (stereo not given) reads 141 nM. Take `CC(C)(C)OC(=O)N1CCC(CCCN2CCC3(CC2)C(=O)NCN3c2ccccc2)(c2ccccc2)CC1`: the IC50 is 8510 nM. With `Cc1nc2ccccc2n1[C@H]1CC2CC[C@H](C1)N2CCC1(c2ccccc2)CCN(C(=O)C2CCCC2)CC1` (single isomer, unassigned), the concentration for half-maximal inhibition (IC50) was 20 nM.

Test system in the next data set: not listed separately
Briefly: Bioavailability in rat at 1 mg/kg, po. Particulars: in vivo.
In the case of `Cc1nc2ccccc2n1[C@H]1C[C@H]2CC[C@@H](C1)N2CCC1(c2cccc(Cl)c2)CCN(C(=O)C(C)(C)C)CC1`, the bioavailability turned out to be 26%.

A further data set relates to Human immunodeficiency virus 1. Description: Antiviral activity against HIV1 Ba-L in human HOS cells by MTS assay. The format is functional, organism-based. The conditions noted are these: Human immunodeficiency virus 1, Ba-L.
`Cc1nc2ccccc2n1[C@@H]1C[C@H]2CC[C@@H](C1)N2CCC1(c2ccccc2)CCN(C(=O)OC(C)(C)C)CC1`: inhibition was half-maximal at 1260 nM (IC50). The compound `Cc1nc2ccccc2n1[C@H]1C[C@H]2CC[C@@H](C1)N2CCC1(c2ccc(Cl)c(Cl)c2)CCN(C(=O)C(C)(C)C)CC1` showed an IC50 of 33.9 nM. On the same count and under the same terms, the result for `Cc1nc2ccccc2n1[C@H]1C[C@H]2CC[C@@H](C1)N2CCC1(c2cccc(Cl)c2)CCN(C(=O)C(C)(C)C)CC1` reads 14.5 nM.

Test system in the next data set: not listed separately
Description: in vivo. The conditions noted are these: rat.
In the case of `Cc1nc2ccccc2n1[C@H]1C[C@H]2CC[C@@H](C1)N2CCC1(c2cccc(Cl)c2)CCN(C(=O)C(C)(C)C)CC1`, the clearance turned out to be 21 mL/min/kg.
